From patent US12415799B2, “Indazole-fused cyclic compound” (Zhejiang Yangli Pharmaceutical Technology Co., Ltd., priority 2020, dated 2025) come the findings set out here.

Data set [1] can be described thus: In vivo pharmacokinetic study in rats. More on the design: species or system male SD rats. An excerpt:
Experimental purposes: To test the drug concentration in plasma of rats at different times after intravenous and intragastric administration of the test compound by LC/MS/MS using male fasted SD rats as the experimental animals. To study the pharmacokinetics of the test compound in rats in vivo and evaluate their pharmacokinetic characteristics.
Experimental animals: 4 healthy male SD rats were divided into 2 groups according to the principle of similar body weight, with 2 mice in each group in IV group and 2 mice in each group in PO group. Animals were purchased from Beijing Vital River Laboratory Animal Co., Ltd.
IV group: Appropriate number of samples were weighed and prepared into 0.5 mg/mL solution respectively, and the mixture was stirred and ultrasonicated to reach a clear state, and the solvent was 15% HP-β-CD.
PO group: Appropriate amount of the solution prepared in IV group was diluted to 0.4 mg/mL with 15% HP-β-CD.
Administration: After fasting overnight, IV group was administered intravenously, and the dosage of the test compound was 1 mg/kg; PO group was administered intragastrically, and the dosage of the test compound was 2 mg/kg.
After the male rats in the intravenous injection group were given the test compound respectively, 200 μL of blood was collected from the jugular vein at 0.0833, 0.25, 0.5, 1, 2, 4, 8, and 24 hours, and placed in a commercialized anticoagulant tube added with EDTA-K2 in advance. After intragastric administration of the test compound, 200 μL of blood was collected from the jugular vein at 0.25, 0.5, 1, 2, 4, 8, 12 and 24 hours, respectively, and placed in a commercialized anticoagulant tube added with EDTA-K2 in advance. After centrifugation (3,200 g, 4° C., 10 minutes), the plasma was collected, transferred to a pre-cooled centrifuge tube, quickly frozen in dry ice, and stored in a refrigerator at −60° C. or lower, until LC-MS/MS analysis. Animals were allowed to eat 4 hours after administration. LC/MS/MS method was used to determine the content of the test compound in the plasma of rats after intravenous and intragastric administration. The linear range of the method was 2.00 to 2000 nM.

In data set [2] the test system is MCF-7 breast cancer cell xenograft. Nature of the data set: In vivo efficacy, MCF-7 breast cancer cell xenograft model. More on the design: species or system BALB/c nude mice. On the procedure: The purpose of this experiment was to evaluate the antitumor effect of the compound of the present disclosure on MCF-7 breast cancer cell xenograft BALB/c nude mice (provided by the Experimental Animal Management Department of the Shanghai Institute of Family Planning Sciences, and the number of test animals in each experimental group was 5) model.
Mice were subcutaneously inoculated with 0.36 mg, 60-day slow-release estrogen tablets in the left shoulder three days before inoculation. When the cells were in the logarithmic growth phase, the cells were collected and counted, and the cell concentration was adjusted to 10×10^7 cells/mL, and an equal volume of Matrigel was added to mix evenly and then used for inoculation. Each mouse was subcutaneously inoculated with 0.2 mL of MCF-7 tumor cell suspension (10×10^6) on the right shoulder. On day 9 after tumor cell inoculation, the average tumor volume was 160 mm^3 and the body weight was 22.0 to 23.0 g, which was administered in groups and administered once a day. Tumor volume and weight measurements were performed twice a week after grouping, and tumor proliferation rate (T/C) and tumor growth inhibition rate (TGI) were calculated for the last tumor volume data on the day 21 after grouping, and the antitumor effect of compounds was evaluated by TGI (%) or relative tumor proliferation rate T/C (%). TGI (%), reflecting the tumor growth inhibition rate. TGI (%)=[(1-(average tumor volume at the end of administration of a certain treatment group-average tumor volume at the beginning of administration of this treatment group)/(average tumor volume at the end of treatment in the solvent control group-average tumor volume at the beginning of treatment in this solvent control group)]×100%, relative tumor proliferation rate T/C (%)=TRTV/CRTV×100% (TRTV: average RTV of the treatment group; CRTV: average RTV of the negative control group). The relative tumor volume (RTV) was calculated according to the results of tumor measurement, and the formula was RTV=Vt/V0, wherein V0 was the average tumor volume measured at the time of group administration (i.e., D0), and Vt was the tumor volume at a certain measurement, TRTV and CRTV were taken on the same day.

Setting [3] is: male, SD, rat, plasma, iv, i.v. 1 mg/kg.
The mark [4] stands for this setting: male, SD, rat, plasma, po, p.o. 2 mg/kg.

For orientation: Vdss means the apparent volume that relates the amount in the body to the concentration in plasma or blood. A higher Vdss goes with extensive tissue distribution. One may read the Cmax as the maximum level reached in the sampled fluid or tissue. As for `FCCCN1CC[C@H](Nc2cnc(C3=C(CC(F)(F)F)CCCc4c3ccc3[nH]nc(F)c43)cn2)C1` [Compound 11A], the AUC0-last in data set [1] (i.v. 1 mg/kg) was determined as 0.518 µM·h; in data set [1] (p.o. 2 mg/kg), 0.601 µM·h. This compound yielded a Cl in data set [1] (i.v. 1 mg/kg) of 53.1 mL/min/kg. For the same compound, the T1/2 in data set [1] (i.v. 1 mg/kg) is 3.19 h; in data set [1] (p.o. 2 mg/kg), 8.96 h. Besides, the Vdss in data set [1] (i.v. 1 mg/kg) is recorded as 14.5 L/kg. Also, the Cmax in data set [1] (p.o. 2 mg/kg) stood at 66.9 nM. Moreover, the F % in data set [1] (p.o. 2 mg/kg vs i.v. 1 mg/kg) came out at 58.1%. Further, the Tumor volume in data set [2] (Day 0, 5 mg/kg once a day) worked out at 160 mm^3; in data set [2] (Day 4, 5 mg/kg once a day), 184 mm^3; in data set [2] (Day 7, 5 mg/kg once a day), 195 mm^3; in data set [2] (Day 11, 5 mg/kg once a day), 200 mm^3; in data set [2] (Day 14, 5 mg/kg once a day), 176 mm^3; in data set [2] (Day 18, 5 mg/kg once a day), 126 mm^3. Also, the Tumor volume in data set [2] (Day 21, 5 mg/kg once a day) worked out at 112 mm^3. In data set [2] (Day 21, 5 mg/kg once a day), the “T/C (%) (Day 21)” value is given as 12.8%. Further, the “TGI (%) (Day 21)” value in data set [2] (Day 21, 5 mg/kg once a day) was 107%.

By AUC(0-t) is commonly meant exposure summed from dosing to a finite time, without extrapolation to infinity. Low values mean less exposure, high ones more exposure. Broadly, the clearance is the volume of plasma or blood freed of the substance per unit of time. The half-life is the time in which the quantity being followed falls by half. A lower half-life goes with fast loss. Broadly, the bioavailability is the share of a dose that reaches the circulation, judged against a reference dose that is usually intravenous. Low values mean little systemic uptake, high ones much systemic uptake. Take `FCCCN1CC(Nc2ccc(C3=C(CC(F)(F)F)CCCc4c3ccc3[nH]nc(F)c43)nc2)C1` [Compound 2]: the results for the AUC(0-t) in data set [1] (setting [3]) and in data set [1] (setting [4]) were 0.493 µM·h and 0.24 µM·h, respectively. This compound yielded a clearance in data set [1] (setting [3]) of 54.6 mL/min/kg. Besides, the half-life in data set [1] (setting [3]) was 3.62 h; in data set [1] (setting [4]), 5.8 h. In data set [1] (male, SD, rat, plasma, iv, i.v. 1 mg/kg, read-out: Vdss), the Vd was 15.9 L/kg. This compound displayed a bioavailability in data set [1] (male, SD, rat, plasma, oral, p.o. 2 mg/kg vs i.v. 1 mg/kg) of 24.3%. In data set [1] (setting [4]), this compound registered a Cmax of 39.3 nM. Besides, the Tumor volume was 161 mm^3 in data set [2] (Day 0, 5 mg/kg once a day); 169 mm^3 in data set [2] (Day 4, 5 mg/kg once a day); 182 mm^3 in data set [2] (Day 7, 5 mg/kg once a day); 186 mm^3 in data set [2] (Day 11, 5 mg/kg once a day); 163 mm^3 in data set [2] (Day 14, 5 mg/kg once a day); 133 mm^3 in data set [2] (Day 18, 5 mg/kg once a day). For the same compound, the Tumor volume in data set [2] (Day 21, 5 mg/kg once a day) was found to be 118 mm^3. Also, the “T/C (%) (Day 21)” value in data set [2] (Day 21, 5 mg/kg once a day) turned out to be 12.3%. Further, the “TGI (%) (Day 21)” value in data set [2] (Day 21, 5 mg/kg once a day) is 106%.
